From patent publication US7868026B2, “Therapeutic compounds” (Pfizer Inc., priority 2005, dated 2011)
Where two headings read alike, the source gives them in different places.

What was measured:
Type in all cases: biochemical
CYP3A4 [1] = target: T1, CYP3A4 (Homo sapiens, UniProt P08684); experiment: Determination of IC50 against CYP3A4 by measurement of inhibition of testosterone metabolism (human liver microsomes, 6-β-OH-testosterone by LC-MS/MS); design: 0.1 mg/mL human liver microsomes; conditions: read-out: IC50 (Testo.)
T1 sequence (P08684 whole entry): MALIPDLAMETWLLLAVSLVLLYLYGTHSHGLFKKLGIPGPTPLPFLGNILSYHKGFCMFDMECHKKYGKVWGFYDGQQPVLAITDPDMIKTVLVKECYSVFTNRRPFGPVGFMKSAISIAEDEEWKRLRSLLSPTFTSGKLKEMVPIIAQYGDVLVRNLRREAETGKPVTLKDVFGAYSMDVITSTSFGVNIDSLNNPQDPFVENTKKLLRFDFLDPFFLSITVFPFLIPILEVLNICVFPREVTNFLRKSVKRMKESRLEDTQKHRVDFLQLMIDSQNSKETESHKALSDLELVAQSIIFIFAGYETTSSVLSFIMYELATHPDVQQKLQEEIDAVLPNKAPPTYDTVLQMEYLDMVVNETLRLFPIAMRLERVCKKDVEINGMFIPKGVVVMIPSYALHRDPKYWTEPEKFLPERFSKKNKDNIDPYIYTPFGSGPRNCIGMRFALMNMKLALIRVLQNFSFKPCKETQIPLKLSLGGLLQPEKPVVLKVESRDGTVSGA
In short: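 6-β-OH-testosterone formation was read by LC-MS/MS (MRM, internal standard, standard curve) after eight minutes. Reaction contained testosterone 25 μM, NADPH 1 mM and microsomal protein 0.1 mg/mL in pH 7.4 potassium phosphate (100 mM).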

CYP3A4 [2] = target: T1, CYP3A4; experiment: Determination of compound Kiapp against recombinant CYP3A4 enzyme (BFC fluorescent substrate)
In short: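 Kiapp derived from initial velocities over the first 5 min of BFC (5 uM) oxidation, using Morrison's tight-binding equation for non-partial and Szedlacsek's for partial inhibitors. Inhibitor first pre-incubated ≥30 min with CYP3A4 (5.5 or 8 nM, ±b5) in pH 7.0 phosphate/TCEP/2% DMF at room temperature; 200 uM NADPH initiated.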

CYP3A4 [3] = target: T1, CYP3A4; experiment: Determination of IC50 against CYP3A4 by measurement of inhibition of midazolam metabolism (human liver microsomes, 1-hydroxymidazolam by LC-MS/MS); design: 0.1 mg/mL human liver microsomes; conditions: 2 μM midazolam, 0.1 mg/mL human liver microsomes
In short: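 Human liver microsomes (0.1 mg/mL) incubated 8 min with 2 μM midazolam and 1 mM NADPH in 100 mM potassium phosphate, pH 7.4. 1-Hydroxymidazolam quantified by LC-MS/MS (MRM) as peak area ratio to internal standard against a metabolite standard curve.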

[4] = Baculo. enzyme preparation, read-out: Kiapp (BFC, Baculo.)
[5] = Super. enzyme preparation, read-out: Kiapp (BFC, Super.)

Row | IC50 (CYP3A4 [1]) [µM] | Ki (CYP3A4 [2]; [4]) [µM] | Ki (CYP3A4 [2]; [5]) [µM] | IC50 (CYP3A4 [3]) [µM] | SMILES
1 | 0.014 | 0.101 | 0.0141 | 0.015 | COc1ccncc1NS(=O)(=O)c1ccccc1C(=O)NCc1ccc(F)c(F)c1 [Example 257, N-(3,4-difluorobenzyl)-2-{[(4-methoxypyridin-3-yl)amino]sulfonyl}benzamide]
2 | 0.011 | 0.0509 | 0.00649 | 0.006 | COc1cncc(NS(=O)(=O)c2ccccc2C(=O)NCCc2ccccc2F)c1 [Example 258, N-[2-(2-fluorophenyl)ethyl]-2-{[(5-methoxypyridin-3-yl)amino]sulfonyl}benzamide]
3 | 0.015 | 0.135 | 0.0125 | 0.015 | Cc1ccncc1NS(=O)(=O)c1ccccc1C(=O)NCc1ccc(F)c(F)c1 [Example 259, N-(3,4-difluorobenzyl)-2-{[(4-methylpyridin-3-yl)amino]sulfonyl}benzamide]
4 | 0.065 | 0.485 | 0.0715 | 0.047 | CCCCNC(=O)c1ccccc1S(=O)(=O)Nc1cnccc1C [Example 260, N-butyl-2-{[(4-methylpyridin-3-yl)amino]sulfonyl}benzamide]
5 | 0.627 | > 1 | 0.453 | 0.256 | COCCNC(=O)c1ccccc1S(=O)(=O)Nc1cccnc1 [Example 261, N-(2-methoxyethyl)-2-[(pyridin-3-ylamino)sulfonyl]benzamide]
6 | 0.0075 | 0.0102 | 0.00163 | 0.005 | COc1cncc(NS(=O)(=O)c2ccccc2C(=O)NCc2ccc(F)c(Cl)c2)c1 [Example 262, N-(3-chloro-4-fluorobenzyl)-2-{[(5-methoxypyridin-3-yl)amino]sulfonyl}benzamide]
7 | 0.011 | 0.0547 | 0.0054 | 0.009 | COc1cncc(NS(=O)(=O)c2ccccc2C(=O)NCCc2ccccc2OC)c1 [Example 263, N-[2-(2-methoxyphenyl)ethyl]-2-{[(5-methoxypyridin-3-yl)amino]sulfonyl}benzamide]
8 | 0.058 | 0.0347 | 0.00988 | 0.026 | COc1cncc(NS(=O)(=O)c2ccc(OC3CCNCC3)cc2C(=O)NCc2ccc(F)cc2)c1 [Example 264, N-(4-fluorobenzyl)-2-{[(5-methoxypyridin-3-yl)amino]sulfonyl}-5-(piperidin-4-yloxy)benzamide]
9 | 0.041 | 0.0296 | 0.0126 | 0.023 | COc1cncc(NS(=O)(=O)c2ccc(OCCN3CCOCC3)cc2C(=O)NCc2ccc(F)cc2)c1 [Example 265, N-(4-fluorobenzyl)-2-{[(5-methoxypyridin-3-yl)amino]sulfonyl}-5-(2-morpholin-4-ylethoxy)benzamide]
10 | 0.109 | 0.145 | 0.0268 | 0.054 | COc1cncc(NS(=O)(=O)c2ccc(OCCCN(C)C)cc2C(=O)NCc2ccc(F)cc2)c1 [Example 266, 5-[3-(dimethylamino)propoxy]-N-(4-fluorobenzyl)-2-{[(5-methoxypyridin-3-yl)amino]sulfonyl}benzamide]
11 | 0.216 | 0.27 | 0.0432 | 0.12 | COc1cncc(NS(=O)(=O)c2ccc(F)cc2C(=O)N2CCCC(C)C2)c1 (stereo not drawn) [Example 267, 4-fluoro-N-(5-methoxypyridin-3-yl)-2-[(3-methylpiperidin-1-yl)carbonyl]benzenesulfonamide]
12 | 0.063 | 0.11 | 0.0194 | 0.044 | CCCCCN(C)C(=O)c1cc(Cl)ccc1S(=O)(=O)Nc1cncc(OC)c1 [Example 268, 5-chloro-2-{[(5-methoxypyridin-3-yl)amino]sulfonyl}-N-methyl-N-pentylbenzamide]
13 | 0.013 | 0.0181 | 0.00331 | 0.009 | CCOc1ccncc1NS(=O)(=O)c1ccccc1C(=O)NCCc1ccccc1C [Example 269, 2-{[(4-ethoxypyridin-3-yl)amino]sulfonyl}-N-[2-(2-methylphenyl)ethyl]benzamide]
14 | 0.052 | 0.352 | 0.0398 | 0.022 | CCOc1ccncc1NS(=O)(=O)c1ccccc1C(=O)NC(C)C1CC1 (stereo not drawn) [Example 270, N-(1-cyclopropylethyl)-2-{[(4-ethoxypyridin-3-yl)amino]sulfonyl}benzamide]
15 | 0.021 | 0.118 | 0.0172 | 0.018 | CCOc1ccncc1NS(=O)(=O)c1ccccc1C(=O)NCCC(C)C [Example 271, 2-{[(4-ethoxypyridin-3-yl)amino]sulfonyl}-N-(3-methylbutyl)benzamide]
16 | 0.019 | 0.0673 | 0.00568 | 0.012 | CCCCCN(C)C(=O)c1ccccc1S(=O)(=O)Nc1cnccc1OCC [Example 272, 2-{[(4-ethoxypyridin-3-yl)amino]sulfonyl}-N-methyl-N-pentylbenzamide]
17 | 0.046 | 0.0701 | 0.00885 | 0.025 | CCCCN(C)C(=O)c1ccccc1S(=O)(=O)Nc1cnccc1OCC [Example 274, N-butyl-2-{[(4-ethoxypyridin-3-yl)amino]sulfonyl}-N-methylbenzamide]
18 | 0.007 | 0.0429 | 0.00376 | 0.009 | COc1ccncc1NS(=O)(=O)c1ccccc1C(=O)NCCc1ccccc1C [Example 275, 2-{[(4-methoxypyridin-3-yl)amino]sulfonyl}-N-[2-(2-methylphenyl)ethyl]benzamide]
19 | 0.134 | 0.563 | 0.0629 | 0.071 | COc1ccncc1NS(=O)(=O)c1ccccc1C(=O)NC(C)C1CC1 (stereo not drawn) [Example 276, N-(1-cyclopropylethyl)-2-{[(4-methoxypyridin-3-yl)amino]sulfonyl}benzamide]
20 | 0.065 | 0.459 | 0.0479 | 0.053 | COc1ccncc1NS(=O)(=O)c1ccccc1C(=O)NCCC(C)C [Example 277, 2-{[(4-methoxypyridin-3-yl)amino]sulfonyl}-N-(3-methylbutyl)benzamide]
21 | 0.066 | 0.131 | 0.0119 | 0.031 | CCCCCN(C)C(=O)c1ccccc1S(=O)(=O)Nc1cnccc1OC [Example 278, 2-{[(4-methoxypyridin-3-yl)amino]sulfonyl}-N-methyl-N-pentylbenzamide]
22 | 0.337 | > 1 | 0.0952 | 0.123 | COc1ccncc1NS(=O)(=O)c1ccccc1C(=O)N(C)C(C)C [Example 279, N-isopropyl-2-{[(4-methoxypyridin-3-yl)amino]sulfonyl}-N-methylbenzamide]
23 | 0.095 | 0.4 | 0.0525 | 0.039 | CCCCN(C)C(=O)c1ccccc1S(=O)(=O)Nc1cnccc1OC [Example 280, N-butyl-2-{[(4-methoxypyridin-3-yl)amino]sulfonyl}-N-methylbenzamide]
24 | 0.065 | 0.468 | 0.0426 | 0.031 | Cc1cncc(NS(=O)(=O)c2ccccc2C(=O)N(C)C(C)C)c1 [Example 281, N-isopropyl-N-methyl-2-{[(5-methylpyridin-3-yl)amino]sulfonyl}benzamide]
25 | 0.062 | 0.33 | 0.0577 | 0.049 | COc1cncc(NS(=O)(=O)c2ccccc2C(=O)N(C)C(C)C)c1 [Example 282, N-isopropyl-2-{[(5-methoxypyridin-3-yl)amino]sulfonyl}-N-methylbenzamide]
26 | 0.049 | 0.0998 | 0.0142 | 0.015 | CN(Cc1ccc(F)c(F)c1)C(=O)c1ccccc1S(=O)(=O)Nc1cccnc1 [Example 284, N-(3,4-difluorobenzyl)-N-methyl-2-[(pyridin-3-ylamino)sulfonyl]benzamide]
27 | 0.028 | 0.026 | 0.00724 | 0.019 | COc1cncc(NS(=O)(=O)c2ccccc2C(=O)N(C)Cc2ccc(F)c(F)c2)c1 [Example 285, N-(3,4-difluorobenzyl)-2-{[(5-methoxypyridin-3-yl)amino]sulfonyl}-N-methylbenzamide]
28 | 0.0095 | 0.0272 | 0.00406 | 0.00767 | Cc1cncc(NS(=O)(=O)c2ccccc2C(=O)N(C)Cc2ccc(F)c(F)c2)c1 [Example 286, N-(3,4-difluorobenzyl)-N-methyl-2-{[(5-methylpyridin-3-yl)amino]sulfonyl}benzamide]
29 | 0.099 | 0.216 | 0.0477 | 0.043 | CCOc1cncc(NS(=O)(=O)c2ccccc2C(=O)NC2CCCC2)c1 [Example 287, N-cyclopentyl-2-{[(5-ethoxypyridin-3-yl)amino]sulfonyl}benzamide]
30 | 0.018 | 0.0022 | 0.00308 | 0.012 | CCOc1cncc(NS(=O)(=O)c2ccccc2C(=O)NCc2ccc(F)c(C(F)(F)F)c2)c1 [Example 288, 2-{[(5-ethoxypyridin-3-yl)amino]sulfonyl}-N-[4-fluoro-3-(trifluoromethyl)benzyl]benzamide]
